Results reported in paper PMC7070407, “Moringin, A Stable Isothiocyanate from Moringa oleifera, Activates the Somatosensory and Pain Receptor TRPA1 Channel In Vitro” (Molecules, 2020).

What was measured:
rat TRPA1 = biological target: T1, rat TRPA1 (Rattus norvegicus, UniProt Q6RI86); assay: Elevation of intracellular Ca2+ (Fluo-4) in HEK-293 cells stably transfected with rat TRPA1; agonist and antagonist/desensitizing behaviour; assay type: cell-based
T1 construct: expressed in transfected cells; host or cells: HEK-293
Description: Assay of rat TRPA1, TRPV2, TRPV3, TRPV4, TRPM8 or human TRPV1 mediated elevation of intracellular Ca^2+ in transfected HEK-293 cells are been performed as described. Briefly, human embryonic kidney (HEK-293) cells, stably transfected with rat TRPA1, TRPV2, TRPV3, TRPV4, TRPM8 or human TRPV1 (selected by Geneticin 600 μg mL^−1) or not transfected, were cultured in EMEM + 2 mM Glutamine + 1% Non-Essential Amino Acids (NEAA) + 10% FBS and maintained at 37 °C with 5% CO2. Stable transfections were checked by quantitative real-time polymerase chain reaction (PCR), quantitative real-time PCR was performed by an iCycler-iQ (Bio-Rad, Hercules, CA, USA) in a 20 μL reaction mixture containing the following: 10 μL iQ SYBR Green Supermix 2X (Bio-Rad), 20 ng of cDNA (calculated on the basis of the retro-transcribed RNA), and 330 nM for each primer. Optimized primers for SYBR Green analysis (and relative TaOpt) and optimum annealing temperatures were designed by Allele-Id software version 7.0 (Biosoft International, Palo Alto, CA, USA) and were synthesized (HPLC-purification grade) by MWG-Biotech AG (Ebersberg, Germany). Assays were performed in quadruplicate (maximal ΔCt of replicate samples, <0.5). Relative expression analysis, correct for PCR efficiency and normalized with respect to reference genes β-actin and glyceraldehyde 3-phosphate dehydrogenase, was performed by GENEX software (Bio-Rad). […] The day of the experiment the cells were loaded with Fluo-4 AM (4 μM in DMSO containing 0.02% Pluronic F-127) for 1 h in the dark at room temperature, rinsed and resuspended in Tyrode’s solution (145 mM NaCl, 2.5 mM KCl, 1.5 mM CaCl2, 1.2 mM MgCl2, 10 mM D-glucose, and 10 mM HEPES, pH 7.4), finally transferred to a quartz cuvette of a spectrofluorimeter (Perkin-Elmer LS50B; λEX = 488 nm, λEM = 516 nm) equipped with PTP-1 Fluorescence Peltier System (PerkinElmer Life and Analytical Sciences, Waltham, MA, USA) under continuous stirring. Cell fluorescence before and after the addition of various concentrations of test compounds and extracts were measured normalizing the effects against the response to ionomycin (4 µM). The values of the effect on [Ca^2+]i in HEK-293 cells not transfected are used as baseline and subtracted from the values obtained from transfected cells. […] The potency of the compounds (EC50 values) are determined as the concentration required to produce half-maximal increases in [Ca^2+]i. In TRPV3 assay TRPV3-expressing HEK293 cells were first sensitized with the structurally unrelated agonist 2-aminoethoxydiphenyl borate (100 μM). Antagonist/desensitizing behaviour is evaluated against the agonist of the TRP analyzed by adding the compounds directly in the quartz cuvette 5 min before stimulation of cells with the agonist. […] In order to assess functional antagonism of TRPA1 channels, AP18, 4-(4-chlorophenyl)-3-methyl-3-buten-2-one oxime […] Dose-response curve fitting (sigmoidal dose-response variable slope) and parameter estimation were performed with Graph-Pad Prism8® (GraphPad Software Inc., San Diego, CA, USA). All determinations were performed at least in triplicate.

human TRPV1 = biological target: T2, human TRPV1 (Homo sapiens, UniProt Q8NER1); assay: Elevation of intracellular Ca2+ (Fluo-4) in HEK-293 cells stably transfected with human TRPV1; assay type: cell-based
T2 construct: expressed in transfected cells; host or cells: HEK-293
Description: Assay of rat TRPA1, TRPV2, TRPV3, TRPV4, TRPM8 or human TRPV1 mediated elevation of intracellular Ca^2+ in transfected HEK-293 cells are been performed as described. Briefly, human embryonic kidney (HEK-293) cells, stably transfected with rat TRPA1, TRPV2, TRPV3, TRPV4, TRPM8 or human TRPV1 (selected by Geneticin 600 μg mL^−1) or not transfected, were cultured in EMEM + 2 mM Glutamine + 1% Non-Essential Amino Acids (NEAA) + 10% FBS and maintained at 37 °C with 5% CO2. Stable transfections were checked by quantitative real-time polymerase chain reaction (PCR), quantitative real-time PCR was performed by an iCycler-iQ (Bio-Rad, Hercules, CA, USA) in a 20 μL reaction mixture containing the following: 10 μL iQ SYBR Green Supermix 2X (Bio-Rad), 20 ng of cDNA (calculated on the basis of the retro-transcribed RNA), and 330 nM for each primer. Optimized primers for SYBR Green analysis (and relative TaOpt) and optimum annealing temperatures were designed by Allele-Id software version 7.0 (Biosoft International, Palo Alto, CA, USA) and were synthesized (HPLC-purification grade) by MWG-Biotech AG (Ebersberg, Germany). Assays were performed in quadruplicate (maximal ΔCt of replicate samples, <0.5). Relative expression analysis, correct for PCR efficiency and normalized with respect to reference genes β-actin and glyceraldehyde 3-phosphate dehydrogenase, was performed by GENEX software (Bio-Rad). […] The day of the experiment the cells were loaded with Fluo-4 AM (4 μM in DMSO containing 0.02% Pluronic F-127) for 1 h in the dark at room temperature, rinsed and resuspended in Tyrode’s solution (145 mM NaCl, 2.5 mM KCl, 1.5 mM CaCl2, 1.2 mM MgCl2, 10 mM D-glucose, and 10 mM HEPES, pH 7.4), finally transferred to a quartz cuvette of a spectrofluorimeter (Perkin-Elmer LS50B; λEX = 488 nm, λEM = 516 nm) equipped with PTP-1 Fluorescence Peltier System (PerkinElmer Life and Analytical Sciences, Waltham, MA, USA) under continuous stirring. Cell fluorescence before and after the addition of various concentrations of test compounds and extracts were measured normalizing the effects against the response to ionomycin (4 µM). The values of the effect on [Ca^2+]i in HEK-293 cells not transfected are used as baseline and subtracted from the values obtained from transfected cells. […] The potency of the compounds (EC50 values) are determined as the concentration required to produce half-maximal increases in [Ca^2+]i. In TRPV3 assay TRPV3-expressing HEK293 cells were first sensitized with the structurally unrelated agonist 2-aminoethoxydiphenyl borate (100 μM). Antagonist/desensitizing behaviour is evaluated against the agonist of the TRP analyzed by adding the compounds directly in the quartz cuvette 5 min before stimulation of cells with the agonist. […]

rat TRPV2 = biological target: T3, rat TRPV2 (Rattus norvegicus, UniProt Q9WUD2); assay: Elevation of intracellular Ca2+ (Fluo-4) in HEK-293 cells stably transfected with rat TRPV2; assay type: cell-based
T3 construct: expressed in transfected cells; host or cells: HEK-293
T3 sequence (Q9WUD2 1-761): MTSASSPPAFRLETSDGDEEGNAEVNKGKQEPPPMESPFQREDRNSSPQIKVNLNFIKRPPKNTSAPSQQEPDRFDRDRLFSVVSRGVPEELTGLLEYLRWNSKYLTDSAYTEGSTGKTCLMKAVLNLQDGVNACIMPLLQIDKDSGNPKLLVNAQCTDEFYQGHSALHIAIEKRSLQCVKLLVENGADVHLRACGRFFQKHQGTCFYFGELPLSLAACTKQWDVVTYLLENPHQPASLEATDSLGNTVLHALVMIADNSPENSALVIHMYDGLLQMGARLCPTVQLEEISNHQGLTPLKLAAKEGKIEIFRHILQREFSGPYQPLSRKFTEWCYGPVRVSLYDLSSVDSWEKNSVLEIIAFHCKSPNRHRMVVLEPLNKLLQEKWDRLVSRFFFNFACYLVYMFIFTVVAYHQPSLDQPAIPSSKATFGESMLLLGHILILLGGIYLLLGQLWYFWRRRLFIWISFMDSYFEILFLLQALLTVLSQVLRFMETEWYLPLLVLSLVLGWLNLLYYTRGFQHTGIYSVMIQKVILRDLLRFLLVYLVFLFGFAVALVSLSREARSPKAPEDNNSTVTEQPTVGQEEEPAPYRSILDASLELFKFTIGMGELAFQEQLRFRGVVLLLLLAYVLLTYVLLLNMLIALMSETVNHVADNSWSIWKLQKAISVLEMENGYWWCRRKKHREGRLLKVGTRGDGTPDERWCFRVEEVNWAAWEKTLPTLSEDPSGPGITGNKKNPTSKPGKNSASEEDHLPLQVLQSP
Description: (§1) Assay of rat TRPA1, TRPV2, TRPV3, TRPV4, TRPM8 or human TRPV1 mediated elevation of intracellular Ca^2+ in transfected HEK-293 cells are been performed as described. Briefly, human embryonic kidney (HEK-293) cells, stably transfected with rat TRPA1, TRPV2, TRPV3, TRPV4, TRPM8 or human TRPV1 (selected by Geneticin 600 μg mL^−1) or not transfected, were cultured in EMEM + 2 mM Glutamine + 1% Non-Essential Amino Acids (NEAA) + 10% FBS and maintained at 37 °C with 5% CO2. Stable transfections were checked by quantitative real-time polymerase chain reaction (PCR), quantitative real-time PCR was performed by an iCycler-iQ (Bio-Rad, Hercules, CA, USA) in a 20 μL reaction mixture containing the following: 10 μL iQ SYBR Green Supermix 2X (Bio-Rad), 20 ng of cDNA (calculated on the basis of the retro-transcribed RNA), and 330 nM for each primer. […] The day of the experiment the cells were loaded with Fluo-4 AM (4 μM in DMSO containing 0.02% Pluronic F-127) for 1 h in the dark at room temperature, rinsed and resuspended in Tyrode’s solution (145 mM NaCl, 2.5 mM KCl, 1.5 mM CaCl2, 1.2 mM MgCl2, 10 mM D-glucose, and 10 mM HEPES, pH 7.4), finally transferred to a quartz cuvette of a spectrofluorimeter (Perkin-Elmer LS50B; λEX = 488 nm, λEM = 516 nm) equipped with PTP-1 Fluorescence Peltier System (PerkinElmer Life and Analytical Sciences, Waltham, MA, USA) under continuous stirring. […]

rat TRPV3 = biological target: T4, rat TRPV3 (Rattus norvegicus, UniProt Q4QYD9); assay: Elevation of intracellular Ca2+ (Fluo-4) in HEK-293 cells stably transfected with rat TRPV3; assay type: cell-based; details: TRPV3, against reference agonist thymol 100 μM
T4 construct: expressed in transfected cells; host or cells: HEK-293
T4 sequence (Q4QYD9 1-791): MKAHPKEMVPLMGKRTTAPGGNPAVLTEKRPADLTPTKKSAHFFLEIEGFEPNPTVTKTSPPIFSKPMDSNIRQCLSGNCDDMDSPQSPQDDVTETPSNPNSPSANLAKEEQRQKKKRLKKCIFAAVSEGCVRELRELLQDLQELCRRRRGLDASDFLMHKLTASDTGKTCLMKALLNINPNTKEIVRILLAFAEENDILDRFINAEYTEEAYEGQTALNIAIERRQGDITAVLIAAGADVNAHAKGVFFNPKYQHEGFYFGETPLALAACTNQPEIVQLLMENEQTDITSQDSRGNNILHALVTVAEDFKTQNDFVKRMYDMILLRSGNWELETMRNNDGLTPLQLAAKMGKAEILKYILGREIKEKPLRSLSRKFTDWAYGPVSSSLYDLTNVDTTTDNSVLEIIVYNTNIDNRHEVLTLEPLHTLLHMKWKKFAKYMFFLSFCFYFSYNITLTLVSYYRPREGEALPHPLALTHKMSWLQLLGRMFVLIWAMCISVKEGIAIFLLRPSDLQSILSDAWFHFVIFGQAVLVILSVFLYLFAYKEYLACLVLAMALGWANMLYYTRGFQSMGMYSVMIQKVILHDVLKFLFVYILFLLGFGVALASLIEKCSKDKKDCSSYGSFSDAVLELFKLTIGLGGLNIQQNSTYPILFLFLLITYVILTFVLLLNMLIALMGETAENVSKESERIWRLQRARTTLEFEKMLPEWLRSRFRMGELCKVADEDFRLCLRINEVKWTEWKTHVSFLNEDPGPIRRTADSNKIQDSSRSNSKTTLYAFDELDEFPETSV
Description: as §1

rat TRPV4 = biological target: T5, rat TRPV4 (Rattus norvegicus, UniProt Q9ERZ8); assay: Elevation of intracellular Ca2+ (Fluo-4) in HEK-293 cells stably transfected with rat TRPV4; assay type: cell-based
T5 construct: expressed in transfected cells; host or cells: HEK-293
Description: as §1

rat TRPM8 = biological target: T6, rat TRPM8 (Rattus norvegicus, UniProt Q8R455); assay: Elevation of intracellular Ca2+ (Fluo-4) in HEK-293 cells stably transfected with rat TRPM8; assay type: cell-based
T6 construct: expressed in transfected cells; host or cells: HEK-293
Description: as §1

[1] = system: not transfected HEK-293 cells; assay: Effect on [Ca2+]i in not transfected HEK-293 cells (baseline); assay type: cell-based, human
Description: Compound and extracts’ effects on intracellular Ca^2+ concentration ([Ca^2+]i) were determined using the selective intracellular fluorescent probe for Ca^2+ Fluo-4. Assay of rat TRPA1, TRPV2, TRPV3, TRPV4, TRPM8 or human TRPV1 mediated elevation of intracellular Ca^2+ in transfected HEK-293 cells are been performed as described. Briefly, human embryonic kidney (HEK-293) cells, stably transfected with rat TRPA1, TRPV2, TRPV3, TRPV4, TRPM8 or human TRPV1 (selected by Geneticin 600 μg mL^−1) or not transfected, were cultured in EMEM + 2 mM Glutamine + 1% Non-Essential Amino Acids (NEAA) + 10% FBS and maintained at 37 °C with 5% CO2. Stable transfections were checked by quantitative real-time polymerase chain reaction (PCR), quantitative real-time PCR was performed by an iCycler-iQ (Bio-Rad, Hercules, CA, USA) in a 20 μL reaction mixture containing the following: 10 μL iQ SYBR Green Supermix 2X (Bio-Rad), 20 ng of cDNA (calculated on the basis of the retro-transcribed RNA), and 330 nM for each primer. […] Cell fluorescence before and after the addition of various concentrations of test compounds and extracts were measured normalizing the effects against the response to ionomycin (4 µM). […] The potency of the compounds (EC50 values) are determined as the concentration required to produce half-maximal increases in [Ca^2+]i. […]

[2] = system: Amyotrophic Lateral Sclerosis (ALS) transgenic model; set-up: method as in PMID 26075221; details: cited from earlier work

T2 sequence (Q8NER1 whole entry): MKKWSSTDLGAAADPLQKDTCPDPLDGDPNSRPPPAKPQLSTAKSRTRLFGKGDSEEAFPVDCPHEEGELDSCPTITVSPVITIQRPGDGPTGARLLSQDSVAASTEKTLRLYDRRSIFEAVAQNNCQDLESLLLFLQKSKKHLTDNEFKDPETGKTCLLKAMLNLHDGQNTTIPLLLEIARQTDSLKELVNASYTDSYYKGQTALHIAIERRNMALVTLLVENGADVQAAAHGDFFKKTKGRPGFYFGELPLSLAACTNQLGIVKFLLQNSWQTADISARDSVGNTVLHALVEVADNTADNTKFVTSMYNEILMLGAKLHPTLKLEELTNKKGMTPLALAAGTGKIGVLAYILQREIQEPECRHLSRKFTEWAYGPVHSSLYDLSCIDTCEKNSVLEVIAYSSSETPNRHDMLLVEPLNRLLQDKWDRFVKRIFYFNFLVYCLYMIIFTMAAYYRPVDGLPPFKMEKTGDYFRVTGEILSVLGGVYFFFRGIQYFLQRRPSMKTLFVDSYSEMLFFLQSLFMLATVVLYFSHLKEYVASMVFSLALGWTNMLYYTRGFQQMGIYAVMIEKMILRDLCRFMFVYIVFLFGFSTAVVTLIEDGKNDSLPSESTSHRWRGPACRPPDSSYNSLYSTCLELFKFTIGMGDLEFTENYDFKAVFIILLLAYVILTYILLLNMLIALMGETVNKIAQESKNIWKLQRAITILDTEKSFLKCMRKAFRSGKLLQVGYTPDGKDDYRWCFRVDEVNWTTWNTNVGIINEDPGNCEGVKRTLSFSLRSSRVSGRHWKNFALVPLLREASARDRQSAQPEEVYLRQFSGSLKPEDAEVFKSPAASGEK
T1 sequence (Q6RI86 whole entry): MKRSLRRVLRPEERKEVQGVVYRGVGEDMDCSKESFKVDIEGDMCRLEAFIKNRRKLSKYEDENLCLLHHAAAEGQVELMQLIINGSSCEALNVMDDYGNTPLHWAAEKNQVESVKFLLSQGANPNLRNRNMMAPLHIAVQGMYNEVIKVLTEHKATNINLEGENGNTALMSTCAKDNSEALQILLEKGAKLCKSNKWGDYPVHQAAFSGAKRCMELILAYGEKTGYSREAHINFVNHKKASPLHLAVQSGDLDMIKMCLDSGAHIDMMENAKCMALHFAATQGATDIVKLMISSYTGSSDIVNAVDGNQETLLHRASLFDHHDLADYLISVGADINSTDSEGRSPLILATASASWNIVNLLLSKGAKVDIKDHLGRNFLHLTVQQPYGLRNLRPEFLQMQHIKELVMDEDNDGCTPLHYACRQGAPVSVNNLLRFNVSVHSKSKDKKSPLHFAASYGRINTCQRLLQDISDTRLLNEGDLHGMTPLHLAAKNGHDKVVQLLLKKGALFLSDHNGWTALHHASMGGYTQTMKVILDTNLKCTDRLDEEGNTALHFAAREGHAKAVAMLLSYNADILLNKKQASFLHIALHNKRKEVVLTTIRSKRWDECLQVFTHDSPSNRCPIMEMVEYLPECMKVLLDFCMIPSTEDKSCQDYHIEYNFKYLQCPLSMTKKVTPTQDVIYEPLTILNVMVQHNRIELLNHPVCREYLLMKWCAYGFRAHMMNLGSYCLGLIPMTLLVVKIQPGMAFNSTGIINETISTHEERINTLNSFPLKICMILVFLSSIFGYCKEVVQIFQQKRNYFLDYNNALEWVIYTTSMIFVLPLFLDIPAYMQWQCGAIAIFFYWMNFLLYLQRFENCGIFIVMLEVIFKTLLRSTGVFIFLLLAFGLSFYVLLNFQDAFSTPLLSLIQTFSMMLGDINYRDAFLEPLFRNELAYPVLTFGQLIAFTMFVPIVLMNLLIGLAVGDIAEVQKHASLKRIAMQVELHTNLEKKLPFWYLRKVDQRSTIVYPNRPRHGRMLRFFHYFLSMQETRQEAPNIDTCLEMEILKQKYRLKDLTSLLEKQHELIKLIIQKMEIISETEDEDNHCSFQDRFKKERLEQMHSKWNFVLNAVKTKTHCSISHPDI
T5 sequence (Q9ERZ8 whole entry): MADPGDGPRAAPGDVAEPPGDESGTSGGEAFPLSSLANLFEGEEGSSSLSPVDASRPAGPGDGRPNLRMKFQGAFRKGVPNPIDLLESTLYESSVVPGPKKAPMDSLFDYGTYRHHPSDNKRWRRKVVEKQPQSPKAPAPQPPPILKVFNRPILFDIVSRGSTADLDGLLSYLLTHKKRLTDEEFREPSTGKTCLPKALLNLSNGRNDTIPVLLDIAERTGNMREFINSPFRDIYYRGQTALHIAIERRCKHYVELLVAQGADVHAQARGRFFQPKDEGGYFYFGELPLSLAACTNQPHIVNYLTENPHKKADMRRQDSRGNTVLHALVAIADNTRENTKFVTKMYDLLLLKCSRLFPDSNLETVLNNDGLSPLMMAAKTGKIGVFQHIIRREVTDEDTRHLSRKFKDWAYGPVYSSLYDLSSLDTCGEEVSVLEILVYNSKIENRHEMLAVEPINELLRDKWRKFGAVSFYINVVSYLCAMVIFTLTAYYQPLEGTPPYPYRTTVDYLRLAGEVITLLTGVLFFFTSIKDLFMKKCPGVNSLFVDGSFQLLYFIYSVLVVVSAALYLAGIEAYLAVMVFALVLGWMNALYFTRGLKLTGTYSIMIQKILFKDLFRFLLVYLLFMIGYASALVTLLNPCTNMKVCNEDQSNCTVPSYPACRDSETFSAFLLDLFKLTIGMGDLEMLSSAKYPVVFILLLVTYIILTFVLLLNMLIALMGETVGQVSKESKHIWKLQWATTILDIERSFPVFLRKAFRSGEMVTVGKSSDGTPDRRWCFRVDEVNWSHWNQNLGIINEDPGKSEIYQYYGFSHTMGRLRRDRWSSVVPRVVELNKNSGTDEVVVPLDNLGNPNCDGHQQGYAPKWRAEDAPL
T6 sequence (Q8R455 whole entry): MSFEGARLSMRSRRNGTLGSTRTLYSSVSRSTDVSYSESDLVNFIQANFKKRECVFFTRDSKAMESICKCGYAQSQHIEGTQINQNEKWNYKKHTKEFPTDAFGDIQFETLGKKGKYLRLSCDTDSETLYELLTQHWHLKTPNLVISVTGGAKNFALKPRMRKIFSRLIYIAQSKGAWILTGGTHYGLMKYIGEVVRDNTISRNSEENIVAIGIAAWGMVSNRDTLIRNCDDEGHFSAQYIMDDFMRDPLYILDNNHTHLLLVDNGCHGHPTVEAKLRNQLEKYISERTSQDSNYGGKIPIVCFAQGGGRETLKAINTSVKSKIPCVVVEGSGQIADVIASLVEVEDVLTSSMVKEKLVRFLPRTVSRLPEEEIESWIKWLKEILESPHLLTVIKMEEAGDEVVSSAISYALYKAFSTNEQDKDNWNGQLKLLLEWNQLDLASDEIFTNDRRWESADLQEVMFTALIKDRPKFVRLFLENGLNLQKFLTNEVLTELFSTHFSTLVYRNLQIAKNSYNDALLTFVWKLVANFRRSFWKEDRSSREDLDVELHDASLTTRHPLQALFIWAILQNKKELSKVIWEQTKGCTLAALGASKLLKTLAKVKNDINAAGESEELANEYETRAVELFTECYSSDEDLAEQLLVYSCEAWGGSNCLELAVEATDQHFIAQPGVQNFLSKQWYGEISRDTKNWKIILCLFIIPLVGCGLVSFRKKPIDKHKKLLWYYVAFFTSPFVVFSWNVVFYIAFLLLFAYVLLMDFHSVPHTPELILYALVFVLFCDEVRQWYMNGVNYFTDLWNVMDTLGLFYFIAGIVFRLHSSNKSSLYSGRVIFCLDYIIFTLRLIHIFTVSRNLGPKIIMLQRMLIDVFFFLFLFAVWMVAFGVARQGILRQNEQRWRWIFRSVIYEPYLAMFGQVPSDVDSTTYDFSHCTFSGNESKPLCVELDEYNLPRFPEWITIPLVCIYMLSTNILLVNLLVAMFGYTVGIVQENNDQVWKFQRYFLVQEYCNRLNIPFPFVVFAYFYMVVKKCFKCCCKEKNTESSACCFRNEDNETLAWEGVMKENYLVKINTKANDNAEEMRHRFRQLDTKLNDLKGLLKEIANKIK

## C[C@@H]1O[C@@H](Oc2ccc(CN=C=S)cc2)[C@H](O)[C@H](O)[C@H]1O [Moringin, 4-[(α-L-rhamnosyloxy)benzyl]isothiocyanate]
Rat TRPA1
  EC50: 3.14 ± 0.16 µM
  IC50: 3.6 ± 0.05 µM
Rat TRPA1; TRPA1-HEK293 cells, pre-incubation with moringin 50 μM
  Effect of AITC 100 μM administered after pre-incubation with moringin: completely inhibited
Rat TRPA1; rTRPA1-HEK-293, percentage of the effect on [Ca2+]i of AITC 100 µM
  Efficacy (% AITC 100 µM): 102.6 ± 1.1%
Human TRPV1
  EC50: 20.4 ± 1.3 µM
  IC50: > 50 µM
Human TRPV1; TRPV1
  Efficacy (% Ionomycin 4 µM): 46.8 ± 0.7%
  Potency EC50: weak
Rat TRPV2
  IC50: > 100 µM
Rat TRPV3
  IC50: > 100 µM
Rat TRPV4
  IC50: > 100 µM
Rat TRPM8
  IC50: > 100 µM
[1]
  Increase of [Ca2+]i in not transfected HEK-293 cells, % of the response in rTRPA1 HEK-293 cells: < 10%
[2]
  Delay of the disease onset: about two weeks
